Test results: patent US20040121965A1, “Method of treating resistant tumors” (Wyeth Holdings Corporation, priority 2002, published 2004)
Where two headings read alike, the source gives them in different places.

Key:
[1] = test system: KB-3-1; assay: Cell survival assay (SRB), KB-3-1; format: cell-based, human; conditions: Homo sapiens, KB 3-1, KB-3-1 cells (paclitaxel-sensitive parent); read-out: In vitro IC50 (nM) KB-3-1
In short: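 Step 1: add serial compound dilutions to cells in duplicate. Step 2: incubate 3 days. Step 3: fix in 10% TCA for 1 hr at 4 °C, stain with 0.04% SRB for 10 min, wash in 1% acetic acid, solubilise in 10 mM Trizma Base, measure absorbance and derive the 50%-growth-inhibition concentration.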

[2] = test system: KB-8-5 (MDR1+); assay: Cell survival assay (SRB), KB-8-5 (MDR1+); conditions: for IC50: Homo sapiens, MDR1, read-out: In vitro IC50 (nM) KB85
[3] = test system: KB-V1 (MDR1++); assay: Cell survival assay (SRB), KB-V1 (MDR1++); conditions: for IC50: Homo sapiens
[4] = read-out: In vitro IC50 (nM) KBV1

CCCCCC(C)(C)[C@H](NC)C(=O)N[C@H](C(=O)N(C)[C@H](/C=C(\C)C(=O)O)C(C)C)C(C)(C)C [Example 50, (2E,4S)-4-[((2S)-2-{[(2S)-3,3-dimethyl-2-(methylamino)octanoyl]amino}-3,3-dimethylbutanoyl)(methyl)amino]-2,5-dimethyl-2-hexenoic acid]
IC50 [1]: 8.7 nM
Ratio KB85/KB [2]: 2.2
IC50 [2]: 19 nM
Ratio KBV1/KB [3]: 58.9
IC50 [3, 4]: 513 nM

CCCCCC(C)(C)[C@@H](NC)C(=O)N[C@H](C(=O)N(C)[C@H](/C=C(\C)C(=O)O)C(C)C)C(C)(C)C [Example 51, (2E,4S)-4-[((2S)-2-{[(2R)-3,3-dimethyl-2-(methylamino)octanoyl]amino}-3,3-dimethylbutanoyl)(methyl)amino]-2,5-dimethyl-2-hexenoic Acid]
IC50 [1]: 224 nM
Ratio KB85/KB [2]: 1.6
IC50 [2]: 363 nM
Ratio KBV1/KB [3]: 13.4
IC50 [3, 4]: ≥ 3000 nM

C/C(=C\[C@H](C(C)C)N(C)C(=O)[C@@H](NC(=O)[C@@H](N(C)CCO)C(C)(C)c1ccccc1)C(C)(C)C)C(=O)O [Example 53, N-(2-hydroxyethyl)-N,β,β-trimethyl-L-phenylalanyl-N^1-[(1S,2E)-3-carboxy-1-isopropylbut-2-enyl]-N^1,3-dimethyl-L-valinamide]
IC50 [1]: 44.7 nM
Ratio KB85/KB [2]: 1.4
IC50 [2]: 61.7 nM
Ratio KBV1/KB [3]: 67.1
IC50 [3, 4]: ≥ 3000 nM

CCOC(=O)/C(C)=C/[C@H](C(C)C)N(C)C(=O)[C@@H](NC(=O)[C@@H](NC)C(C)(C)c1ccccc1OC)C(C)(C)C [Example 54, 2-Methoxy-N,β,β-trimethyl-L-phenylalanyl-N^1-[(1S,2E)-4-ethoxy-1-isopropyl-3-methyl-4-oxo-2-butenyl]-N^1,3-dimethyl-L-valinamide]
IC50 [1]: 126 nM
Ratio KB85/KB [2]: 4.8
IC50 [2]: 602 nM
Ratio KBV1/KB [3]: 16.6
IC50 [3, 4]: 2090 nM

CN[C@H](C(=O)N[C@H](C(=O)N(C)[C@H](/C=C(\C)C(=O)O)C(C)C)C(C)(C)C)C(C)(C)c1ccccc1OC [Example 55, 2-Methoxy-N,β,β-trimethyl-L-phenylalanyl-N^1-[(1S,2E)-3-carboxy-1-isopropyl-2-butenyl]-N^1,3-dimethyl-L-valinamide]
IC50 [1]: 1.7 nM
Ratio KB85/KB [2]: 2.6
IC50 [2]: 4.4 nM
Ratio KBV1/KB [3]: 112.1
IC50 [3, 4]: 190 nM

CCOC(=O)/C(C)=C/[C@H](C(C)C)N(C)C(=O)[C@@H](NC(=O)[C@@H](NC)C(C)(C)c1ccc(OC)cc1)C(C)(C)C [Example 56, N,O,β,β-tetramethyl-L-tyrosyl-N^1-[(1S,2E)-4-ethoxy-1-isopropyl-3-methyl-4-oxo-2-butenyl]-N^1,3-dimethyl-L-valinamide]
IC50 [1]: 26.3 nM
Ratio KB85/KB [2]: 18.2
IC50 [2]: 479 nM
Ratio KBV1/KB [3]: 67.6
IC50 [3, 4]: 1780 nM

CCOC(=O)/C(C)=C/[C@H](C(C)C)N(C)C(=O)[C@@H](NC(=O)[C@@H](NC)C(C)(C)c1ccc(OC)cc1OC)C(C)(C)C [Example 58, 2-Methoxy-N,O,β,β,tetramethyl-L-tyrosyl-N^1-[(1S,2E)-4-ethoxy-1-isopropyl-3-methyl-4-oxo-2-butenyl]-N^1,3-dimethyl-L-valinamide]
IC50 [1]: 144 nM
Ratio KB85/KB [2]: 11.7
IC50 [2]: 1700 nM
Ratio KBV1/KB [3]: 20.8
IC50 [3, 4]: ≥ 3000 nM

CN[C@H](C(=O)N[C@H](C(=O)N(C)[C@H](/C=C(\C)C(=O)O)C(C)C)C(C)(C)C)C(C)(C)c1ccc(OC)cc1OC [Example 59, 2-Methoxy-N,O,β,β-tetramethyl-L-tyrosyl-N^1-[(1S,2E)-3-carboxy-1-isopropyl-2-butenyl]-N^1,3-dimethyl-L-valinamide]
IC50 [1]: 2.4 nM
Ratio KB85/KB [2]: 5.5
IC50 [2]: 13.2 nM
Ratio KBV1/KB [3]: 446.7
IC50 [3, 4]: 1070 nM

CN[C@H](C(=O)N[C@H](C(=O)N(C)[C@H](/C=C(\C)C(=O)O)C(C)C)C(C)(C)C)C(C)(C)c1cccc(F)c1 [Example 60, 3-Fluoro-N,β,β-trimethyl-L-phenylalanyl-N^1-[(1S,2E)-3-carboxy-1-isopropyl-2-butenyl]-N^1,3-dimethyl-L-valinamide]
IC50 [1]: 0.997 nM
Ratio KB85/KB [2]: 1.8
IC50 [2]: 1.8 nM
Ratio KBV1/KB [3]: 77.4
IC50 [3, 4]: 77 nM

CN[C@@H](C(=O)N[C@H](C(=O)N(C)[C@H](/C=C(\C)C(=O)O)C(C)C)C(C)(C)C)C(C)(C)c1cccc(F)c1 [Example 61, 3-Fluoro-N,β,β-trimethyl-D-phenylalanyl-N^1-[(1S,2E)-3-carboxy-1-isopropyl-2-butenyl]-N^1,3-dimethyl-L-valinamide]
IC50 [1]: 12.6 nM
Ratio KB85/KB [2]: 1.5
IC50 [2]: 18.6 nM
Ratio KBV1/KB [3]: 79.4
IC50 [3, 4]: 1000 nM

CN[C@@H](C(=O)N[C@H](C(=O)N(C)[C@H](/C=C(\C)C(=O)O)C(C)C)C(C)(C)C)C(C)(C)c1cccc(C(F)(F)F)c1 [Example 63, N,β,β-Trimethyl-3-(trifluoromethyl)-D-phenylalanyl-N^1-[(1S,2E)-3-carboxy-1-isopropyl-2-butenyl]-N^1,3-dimethyl-L-valinamide]
IC50 [1]: 19.1 nM
Ratio KB85/KB [2]: 2.4
IC50 [2]: 45.7 nM
Ratio KBV1/KB [3]: 69.0
IC50 [3, 4]: 1320 nM

CN[C@H](C(=O)N[C@H](C(=O)N(C)[C@H](/C=C(\C)C(=O)O)C(C)C)C(C)(C)C)C(C)(C)c1cc(F)cc(F)c1 [Example 64, 3,5-Difluoro-N,β,β-trimethyl-L-phenylalanyl-N^1-[(1S,2E)-3-carboxy-1-isopropylbut-2-enyl]-N^1,3-dimethyl-L-valinamide]
IC50 [1]: 6.2 nM
Ratio KB85/KB [2]: 2.6
IC50 [2]: 16.2 nM
Ratio KBV1/KB [3]: 73.7
IC50 [3, 4]: 457 nM

CN[C@H](C(=O)N[C@H](C(=O)N(C)[C@H](/C=C(\C)C(=O)O)C(C)C)C(C)(C)C)C(C)(C)c1cc(C(F)(F)F)cc(C(F)(F)F)c1 [Example 66, N,β,β-trimethyl-3,5-bis(trifluoromethyl)-L-phenylalanyl-N^1-[(1S,2E)-3-carboxy-1-isopropylbut-2-enyl]-N^1,3-dimethyl-L-valinamide]
IC50 [1]: 17 nM
Ratio KB85/KB [2]: 1.1
IC50 [2]: 19 nM
Ratio KBV1/KB [3]: 26.9
IC50 [3, 4]: 457 nM

CN[C@@H](C(=O)N[C@H](C(=O)N(C)[C@H](/C=C(\C)C(=O)O)C(C)C)C(C)(C)C)C(C)(C)c1cc(C(F)(F)F)cc(C(F)(F)F)c1 [Example 67, N,β,β-trimethyl-3,5-bis(trifluoromethyl)-D-phenylalanyl-N^1-[(1S,2E)-3-carboxy-1-isopropylbut-2-enyl]-N^1,3-dimethyl-L-valinamide]
IC50 [1]: 170 nM
Ratio KB85/KB [2]: 1.1
IC50 [2]: 186 nM
IC50 ([3]; read-out: In vitro IC50 KBV1): > 3000 nM

CN[C@H](C(=O)N[C@H](C(=O)N(C)[C@H](/C=C(\C)C(=O)O)C(C)C)C(C)(C)C)C(C)(C)c1ccc(OC(C)C)cc1 [Example 68, O-isopropyl-N,β,β-trimethyl-L-tyrosyl-N^1-[(1S,2E)-3-carboxy-1-isopropylbut-2-enyl]-N^1,3-dimethyl-L-valinamide]
IC50 [1]: 1.5 nM
Ratio KB85/KB [2]: 2.9
IC50 [2]: 4.3 nM
Ratio KBV1/KB [3]: 47.2
IC50 [3, 4]: 70.8 nM

CN[C@H](C(=O)N[C@H](C(=O)N(C)[C@H](/C=C(\C)C(=O)O)C(C)C)C(C)(C)C)C1(c2ccccc2)CCCC1 [Example 71, (2E,4S)-2,5-dimethyl-4-(methyl{3-methyl-N-[(2S)-2-(methylamino)-2-(1-phenylcyclopentyl)ethanoyl]-L-valyl}amino)-2-hexenoic acid]
IC50 [1]: 141 nM
Ratio KB85/KB [2]: 1.3
IC50 [2]: 186 nM
Ratio KBV1/KB [3]: 21.2
IC50 [3, 4]: ≥ 3000 nM

CN[C@@H](C(=O)N[C@H](C(=O)N(C)[C@H](/C=C(\C)C(=O)O)C(C)C)C(C)(C)C)C1(c2ccccc2)CCCC1 [Example 72, (2E,4S)-2,5-dimethyl-4-(methyl{3-methyl-N-[(2R)-2-(methylamino)-2-(1-phenylcyclopentyl)ethanoyl]-L-valyl}amino)-2-hexenoic Acid]
IC50 [1]: 59.3 nM
Ratio KB85/KB [2]: 1.1
IC50 [2]: 63.1 nM
Ratio KBV1/KB [3]: 45.0
IC50 [3, 4]: 2660 nM

CNC(C(=O)N[C@H](C(=O)N(C)[C@@H](/C=C(\C)C(=O)O)C(C)C)C(C)(C)C)C1(c2ccccc2)CCCCC1 (stereo partly drawn) [Example 73, (2E,4R)-2,5-dimethyl4-(methyl{3-methyl-N-[(methylamino)(1-phenylcyclohexyl)acetyl]-L-valyl}amino)-2-hexenoic Acid]
IC50 [1]: 204 nM
Ratio KB85/KB [2]: 1.8
IC50 [2]: 363 nM
Ratio KBV1/KB [3]: 14.7
IC50 [3, 4]: ≥ 3000 nM

CCCC[C@@H](/C=C(\C)C(=O)O)N(C)C(=O)[C@@H](NC(=O)[C@@H](NC)C(C)(C)c1ccccc1)C(C)(C)C [Example 75, N,β,β-Trimethyl-L-phenylalanyl-N^1-[(1S,2E)-1-butyl-3-carboxybut-2-enyl]-N^1,3-dimethyl-L-valinamide]
IC50 [1]: 36 nM
Ratio KB85/KB [2]: 2.2
IC50 [2]: 78 nM
Ratio KBV1/KB [3]: 60.0
IC50 [3, 4]: 2130 nM

CC/C(=C\[C@H](CC(C)C)N(C)C(=O)[C@@H](NC(=O)[C@@H](NC)C(C)(C)c1ccccc1)C(C)(C)C)C(=O)O [Example 76, N,β,β-Trimethyl-L-phenylalanyl-N^1-[(1S,2E)-3-carboxy-1-isobutyl-2-pentenyl]-N^1,3-dimethyl-L-valinamide]
IC50 [1]: 70.8 nM
Ratio KB85/KB [2]: 2.4
IC50 [2]: 169 nM
Ratio KBV1/KB [3]: 42.4
IC50 [3, 4]: ≥ 3000 nM
